This passage reports IC50 and Km results from publication PMC6544269, “Identification of inhibitors of an unconventional Trypanosoma brucei kinetochore kinase” (PLoS ONE, 2019).

For data set [1], the target named is T1, TbKKT19 (Trypanosoma brucei, UniProt Q382T9).
T1 construct: gene Tb11.01.4250; recombinant His-tagged, full-length TbKKT19
T1 sequence (Q382T9 1-484): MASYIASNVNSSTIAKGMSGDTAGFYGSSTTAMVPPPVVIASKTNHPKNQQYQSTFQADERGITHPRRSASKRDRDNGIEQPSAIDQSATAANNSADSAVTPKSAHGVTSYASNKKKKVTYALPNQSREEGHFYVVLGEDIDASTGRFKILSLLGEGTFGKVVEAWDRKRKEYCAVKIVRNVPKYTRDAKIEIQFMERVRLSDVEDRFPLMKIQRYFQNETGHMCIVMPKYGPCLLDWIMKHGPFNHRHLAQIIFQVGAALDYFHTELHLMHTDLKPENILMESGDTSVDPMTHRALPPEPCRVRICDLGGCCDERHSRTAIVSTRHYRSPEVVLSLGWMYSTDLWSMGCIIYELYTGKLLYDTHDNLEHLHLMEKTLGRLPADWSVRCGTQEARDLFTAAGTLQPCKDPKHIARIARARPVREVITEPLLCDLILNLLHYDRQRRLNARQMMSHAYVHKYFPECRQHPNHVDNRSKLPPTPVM
Nature of the data set: ADP Hunter Plus kinase assay, 10-point IC50, with technology counterscreen; repurchased and reconfirmed. The data set is classed as biochemical. In general terms: A counterscreen serves to expose hits that act by an unwanted route or on another target.

Data set [2] concerns the target T1, TbKKT19. Nature of the data set: ADP Hunter Plus kinase assay, KKL peptide, […] ATP; potency shift at […] ATP. The class given is biochemical.
Substrate in the data set “purified protein”: Nc1ncnc2c1ncn2[C@@H]1O[C@H](COP(=O)(O)OP(=O)(O)OP(=O)(O)O)[C@@H](O)[C@H]1O
The data set can be described thus: purified protein. The data set is classed as biochemical, Trypanosoma brucei. To be noted: ATP binding site.

A word on the IC50: it is the point on the concentration scale where inhibition reaches its midpoint. For the molecule `O=C(Nc1ccc2cn[nH]c2c1)c1c(Cl)cccc1Cl` [compound 2], the half-inhibitory concentration (IC50) on TbKKT19 [1] stood at 14.9 µM.
Turning to `CN[C@@H]1C[C@H]2O[C@@](C)([C@@H]1OC)n1c3ccccc3c3c4c(c5c6ccccc6n2c5c31)C(=O)NC4` [staurosporine], the IC50 at TbKKT19 [2] came to 288 nM.
On the same count and under the same terms, with `COc1cc(O)c2c(c1)[C@H]1O[C@@H]1C[C@H](O)[C@H](O)C(=O)/C=C\C[C@H](C)OC2=O` [hypothemycin] the figure was 65 nM.
For `CCN(Cc1ccc(/C=C2/C(=O)Nc3ccccc32)o1)S(C)(=O)=O` [compound 1], the IC50 on TbKKT19 [1] was found to be 18.9 µM.

B1: TbKKT19 (Trypanosoma brucei brucei TREU927) (protein)
chain: T1 sequence (Q382T9 1-484)
notes: recombinant His-tagged, full-length TbKKT19
As a reminder, the Km is the substrate concentration at which the rate is half of its maximum. Consider B1, for which the Km in “purified protein” worked out at 102 µM.
